Marks after values point to notes of the source that are not given here.
How the values were obtained:
c2c12 myotubes [1] = experiment: Glucose utilization, extracellular acidification response to glucose, myotubes; assay type: cell-based; settings: leucine 0.5 mM, HMB 5 μM, resveratrol 200 nM, partner at its no-effect concentration
Procedure: All compounds were tested for potential to independently or synergistically modulate sirtuin signaling either by direct stimulation or indirect via upstream signaling via AMPK. A key outcome of Sirt1 signaling is stimulation of PGC1-α and subsequent stimulation of mitochondrial biogenesis and fatty acid oxidation. Accordingly, fatty acid oxidation, measured as palmitate-induced oxygen consumption as described below, was utilized as a sensitive first level of screening for aerobic mitochondrial metabolism. A dose-response curve for fatty acid oxidation was established for each compound studied, and a “sub-therapeutic dose” was defined as the highest dose that exerted no effect in this system. […] Following assessment of fatty acid oxidation, Sirt1 activity, AMPK activity, mitochondrial biogenesis and glucose utilization (measured as glucose-induced extracellular acidification in the absence of fatty acids in the media) were assessed for lead combinations and appropriate controls. In the absence of a fatty acid source and oxidative metabolism, glycolysis and subsequent lactate production results in extracellular acidification, which was also measured using a Seahorse Bioscience XF24 analyzer. […] Data for each sample were normalized to the pre-glucose injection baseline for that sample and expressed as % change from that baseline. […]

[2] = system: adipocytes (3T3-L1) and myotubes (C2C12); experiment: Fatty acid oxidation screening: dose-response curves and synergy, cell type not separately stated; assay type: cell-based; settings: for concentration that exerts no effect in dose-response curves (sub-therapeutic dose used in synergy experiments): fatty acid oxidation dose-response
[3] = Plasma insulin, glucose and HOMAIR in diabetic db/db mice; assay type: in vivo; settings: 2 weeks, low dose (150 mg/kg) and very low dose (50 mg/kg) of metformin
[4] = db/db mice, day 7, insulin 0.75 U/kg i.p.; standard metformin dose or blends
[5] = db/db mice, 2 weeks
c2c12 myotubes [6] = experiment: Fatty acid oxidation (FAO) in c2c12 myotubes, Example 1; assay type: cell-based; settings: in the presence and absence of 20 nM rapamycin
Procedure: We have shown that catabolic systems are also stimulated to fuel this process, resulting in increased mitochondrial biogenesis and fatty acid oxidation (FAO). To address the mechanism of this effect, we first determined its mTOR-dependence by assessing leucine stimulation of FAO in the presence and absence of 20 nM rapamycin; although rapamycin inhibited FAO in c2c12 myotubes, the degree of leucine stimulation was preserved (˜50%, p<0.03; FIG. 1).
(§1) We next investigated the role of intact leucine (0-0.5 mM) vs. its metabolites, α-ketoisocaproic acid (KIC) (0-0.5 mM) and HMB (0-50 μM). […] Both leucine and HMB increased myotube mitochondrial biogenesis (assessed fluorometrically via NAO binding) by ˜50%, (p<0.005, FIG. 3).

myotube = experiment: Myotube mitochondrial biogenesis, fluorometric NAO binding, Example 1; assay type: cell-based; settings: myotubes
Procedure: as §1

[7] = system: PGC-1α, NRF-1, UCP3 genes; experiment: Expression of mitochondrial regulatory and component genes; assay type: cell-based
Sirt3 = molecular target: T1, Sirt3 (Mus musculus, UniProt Q8R104); experiment: Sirt3 activity in mitochondrial protein of treated 3T3-L1 adipocytes; assay type: cell-based; settings: leucine 0.5 mM, HMB 5 μM, resveratrol 200 nM; summary in Example 5
T1 construct: endogenous in cells; host or cells: 3T3-L1 adipocytes (mitochondrial protein)
T1 sequence (Q8R104 1-334): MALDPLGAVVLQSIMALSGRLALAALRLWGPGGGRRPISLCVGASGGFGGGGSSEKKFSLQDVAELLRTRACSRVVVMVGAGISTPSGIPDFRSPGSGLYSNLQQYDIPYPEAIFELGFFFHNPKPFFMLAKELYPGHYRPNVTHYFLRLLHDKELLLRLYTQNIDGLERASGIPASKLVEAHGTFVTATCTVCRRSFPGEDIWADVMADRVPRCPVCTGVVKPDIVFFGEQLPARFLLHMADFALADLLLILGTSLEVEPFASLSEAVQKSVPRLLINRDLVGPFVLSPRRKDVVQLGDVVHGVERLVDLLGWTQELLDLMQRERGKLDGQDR

Adipocytes (3T3-L1) = experiment: Fatty acid oxidation by 3H-palmitate in 3T3-L1 adipocytes; assay type: cell-based; settings: 4 hours, resveratrol 200 nM, HMB 5 uM, leucine 0.5 mM; for increase in fatty acid oxidation, low glucose: low (5 mM) glucose
Procedure: High glucose medium reduced fatty acid oxidation by 46% (p<0.05).
Fatty acid oxidation was measured using ^3H-labeled palmitate oxidation, with the ^3H label trapped as water as a result of the fat oxidation. The ^3H was then measured via scintillation counter.

myotubes (C2C12) = experiment: Fatty acid oxidation, palmitate-induced O2 consumption (Seahorse XF24), myotubes; assay type: cell-based; settings: 24 hours treatment, leucine 0.5 mM, HMB 5 μM, resveratrol 200 nM, partner at its no-effect concentration, % change from control
[8] = Body weight, weight gain and visceral adipose volume in diet-induced obese mice; assay type: in vivo, c57/BL6 mice; settings: 6 weeks on diet, low resveratrol 12.5 mg/kg diet, low HMB 2 g CaHMB/kg diet, high HMB 10 g CaHMB/kg diet, leucine 2.42% of diet
Excerpt: (§2) Six week old male c57/BL6 mice were fed a high-fat diet with fat increased to 45% of energy (Research Diets D12451) for 6 weeks to induce obesity.
At the of the treatment period (6 weeks) all animals were humanely euthanized, and blood and tissues collected for further experiments.

[9] = Indices of insulin sensitivity (plasma glucose, insulin, HOMAIR) in diet-induced obese mice; assay type: in vivo, c57/BL6 mice; settings: 6 weeks on diet, low resveratrol 12.5 mg/kg diet, low HMB 2 g CaHMB/kg diet, high HMB 10 g CaHMB/kg diet, leucine 2.42% of diet
Excerpt: Insulin sensitivity can be measured using a variety of techniques, including HOMAIR. HOMAIR, which is the homeostasis model assessment of insulin resistance can be used as a screening index of changes in insulin sensitivity. HOMAIR can be calculated via standard formula from fasting plasma insulin and glucose as follows: HOMAIR=[Insulin (uU/mL)×glucose (mM)]/22.5.
as §2

[10] = system: C-reactive protein, IL-6, MCP-1, adiponectin; experiment: Circulating inflammatory biomarkers in diet-induced obese mice; assay type: in vivo, c57/BL6 mice; settings: 6 weeks on diet, low resveratrol 12.5 mg/kg diet, low HMB 2 g CaHMB/kg diet, high HMB 10 g CaHMB/kg diet, leucine 2.42% of diet
SIRT1 = molecular target: T2, SIRT1 (Mus musculus, UniProt Q923E4); experiment: Adipose tissue Sirt1 activity in diet-induced obese mice; assay type: in vivo, c57/BL6 mice; set-up: from tissue; host or cells: adipose tissue of diet-induced obese c57/BL6 mice; settings: 6 weeks, low dose of resveratrol, HMB, leucine diets
T2 sequence (Q923E4 1-737): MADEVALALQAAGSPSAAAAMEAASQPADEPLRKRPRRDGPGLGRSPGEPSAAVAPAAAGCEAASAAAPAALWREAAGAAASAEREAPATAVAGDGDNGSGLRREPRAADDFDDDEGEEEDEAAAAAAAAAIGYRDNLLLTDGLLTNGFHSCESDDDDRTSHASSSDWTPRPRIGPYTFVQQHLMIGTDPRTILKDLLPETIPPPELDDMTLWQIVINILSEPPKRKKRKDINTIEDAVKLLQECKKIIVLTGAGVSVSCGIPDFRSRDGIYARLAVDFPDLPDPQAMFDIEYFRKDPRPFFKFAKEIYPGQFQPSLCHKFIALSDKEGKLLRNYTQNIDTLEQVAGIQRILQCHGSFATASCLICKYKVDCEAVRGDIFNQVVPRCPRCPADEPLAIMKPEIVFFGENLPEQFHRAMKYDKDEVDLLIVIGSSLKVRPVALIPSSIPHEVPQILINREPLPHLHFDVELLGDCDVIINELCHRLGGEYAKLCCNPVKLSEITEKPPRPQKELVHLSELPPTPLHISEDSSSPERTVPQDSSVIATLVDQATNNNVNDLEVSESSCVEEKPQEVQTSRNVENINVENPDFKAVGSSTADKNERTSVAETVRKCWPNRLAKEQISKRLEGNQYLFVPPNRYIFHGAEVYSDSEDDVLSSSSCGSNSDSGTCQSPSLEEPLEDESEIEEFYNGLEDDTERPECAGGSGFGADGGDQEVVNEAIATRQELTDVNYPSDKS

## O=C(O[C@@H]1Cc2c(O)cc(O)cc2O[C@@H]1c1cc(O)c(O)c(O)c1)c1cc(O)c(O)c(O)c1 [EGCG, epigallocatechin gallate]
c2c12 myotubes [1]
  increase in glucose utilization, myotubes: no independent effect
[2]
  independent activity in dose-response curves / direct stimulation of fatty acid oxidation: minimally active

## CN(C)C(=N)N=C(N)N [metformin]
[3]
  independent effects on any variable studied: no significant independent effects
[4]
  decrease in blood glucose over the 30 minute linear portion of the insulin tolerance test response curve: ~60 mg/dL
[5]; control 4.5 g
  visceral fat mass: not affected
[5]; high dose metformin 300 mg/kg bw
  effect on body composition: no significant effects

## OC[C@@H](O)[C@@H](O[C@H]1O[C@H](CO)[C@@H](O)[C@H](O)[C@H]1O)[C@H](O)[C@@H](O)CO [Maltitol, maltitol]
[2]
  concentration that exerts no effect in dose-response curves (sub-therapeutic dose used in synergy experiments): ≤ 100 nM
[2]; leucine 0.5 mM, HMB 5 μM
  synergy with HMB or leucine in stimulating fatty acid oxidation: no synergy was noted

## CC(C)C[C@H](N)C(=O)O [leucine]
c2c12 myotubes [6]
  degree of leucine stimulation of FAO: ~50%
myotube
  increase in myotube mitochondrial biogenesis (NAO binding): ~50%
[7]
  expression of mitochondrial regulatory (PGC-1α and NRF-1) and component (UCP3) genes: stimulated expression
Sirt3
  stimulation of Sirt3: no independent effects
Adipocytes (3T3-L1)
  increase in fatty acid oxidation, low glucose: no independent effect

## Cn1c(=O)c2[nH]cnc2n(C)c1=O [Theophylline, theophylline, reference compound]
[2]
  concentration that exerts no effect in dose-response curves (sub-therapeutic dose used in synergy experiments): below 1 μM

## O=c1oc2c(O)c(O)cc3c(=O)oc4c(O)c(O)cc1c4c23 [Ellagic acid, ellagic acid]
[2]
  independent activity in dose-response curves / direct stimulation of fatty acid oxidation: little activity, even at high concentrations

## Cn1c(=O)c2c(ncn2C)n(C)c1=O [Caffeine, caffeine, reference compound]
Myotubes (C2C12)
  increase in myotube fatty acid oxidation: neither component exerted an independent effect

## O=C(O)/C=C/c1ccc(O)c(O)c1 [Caffeic acid, caffeic acid]
[2]
  concentration that exerts no effect in dose-response curves (sub-therapeutic dose used in synergy experiments): ≤ 1000 nM

## fucoxanthin
[2]
  concentration that exerts no effect in dose-response curves (sub-therapeutic dose used in synergy experiments): ≤ 100 nM

## CC(C)(O)CC(=O)O [HMB, beta-hydroxymethylbutyrate]
myotube
  increase in myotube mitochondrial biogenesis (NAO binding): ~50%
[7]
  expression of mitochondrial regulatory (PGC-1α and NRF-1) and component (UCP3) genes: stimulated expression
Sirt3
  stimulation of Sirt3: no independent effects
Adipocytes (3T3-L1); high (25 mM) glucose, vs. control
  increase in fatty acid oxidation, high glucose: 29%
Adipocytes (3T3-L1)
  increase in fatty acid oxidation, low glucose: no independent effect
[8]
  Visceral Adipose Volume: 6184 ± 460^a mm^3
  Weight: 40.3 ± 2.1^a g
  Weight gain: 22.5 ± 1.2 g
[9]
  Glucose (plasma): 4.28 ± 0.49^a mM
  Insulin (plasma): 8.3 ± 1.1^a μU/mL
[10]
  Adiponectin: 11.1 ± 1.6^a ng/mL
  C-reactive protein: 98.6 ± 5.1^a ng/mL
  IL-6: 19.9 ± 3.1^a pg/mL
  MCP-1: 116.8 ± 9.3^a pg/mL
SIRT1
  adipose tissue Sirt1 activity: Neither resveratrol nor HMB exerted significant independent effects

Source: patent US10383837B2, “Compositions and methods for modulating metabolic pathways” (NuSirt Sciences, Inc., priority 2011, dated 2019)
